Laboratory results as given in patent US9133184B2, “Chromen-2-one derivatives and their use as monoamine neurotransmitter re-uptake inhibitors” (ANIONA APS, priority 2010, dated 2015).
Counter-ions that a name gives are not always drawn.

Legend:
Assay type in all cases: biochemical
[1] = test system: serotonine (5-HT) reuptake in synaptosomes; assay: Inhibition of 5-HT reuptake in synaptosomes; settings: 3H-5-HT, read-out: 5-HT-uptake IC50
Procedure: (§1) Compounds were tested for their ability to inhibit the reuptake of the monoamine neurotransmitters dopamine (DA) noradrenaline (NA) and serotonine (5-HT) in synaptosomes as described in WO 97/16451 (NeuroSearch A/S).
(§2) The test values are given as IC50 (the concentration (μM) of the test substance which inhibits the specific binding of ^3H-DA, ^3H-NA, or ^3H-5-HT by 50%).

[2] = test system: dopamine (DA) reuptake in synaptosomes; assay: Inhibition of DA reuptake in synaptosomes; settings: 3H-DA, read-out: DA-uptake IC50
Procedure: as §1, §2

[3] = test system: noradrenaline (NA) reuptake in synaptosomes; assay: Inhibition of NA reuptake in synaptosomes; settings: 3H-NA, read-out: NA-uptake IC50
Procedure: as §1, §2

SMILES: COc1cc2ccc(O[C@@H]3C[C@H]4CC[C@@H](C3)N4)cc2oc1=O [Compound 1.1, Exo-7-[(-8-azabicyclo[3.2.1]octan-3-yl)oxy]-3-methoxy-chromen-2-one hydrochloride]
- IC50 [1]: 2.9 nM
- IC50 [2]: 70 nM
- IC50 [3]: 3.8 nM
